Experimental data from patent US20250115622A1, “Crystalline Forms Of An MCL-1 Inhibitor” (AMGEN INC., priority 2022, published 2025).

Experiments:
[1] = Moisture sorption (DVS) profile; type: physicochemical
Experimental: Moisture Sorption: Moisture sorption data was collected using a VTI SGA 100 symmetrical vapor sorption analyzer. A sample size of approximately 5-10 mg was used in a platinum pan. Hygroscopicity was evaluated from 5 to 95% RH in increments of 5% RH. Data for adsorption and desorption cycles were collected. Equilibrium criteria were set at 0.001% weight change in 10 minutes with a maximum equilibration time of 180 minutes.

[2] = Thermodynamic stability of solid form; type: physicochemical
[3] = Solubility compared between crystalline forms; type: physicochemical; conditions: relative to AMG 397 anhydrous form 4
[4] = Bioavailability compared between crystalline forms; type: in vivo; conditions: relative to AMG 397 anhydrous form 4
Water content by KF = type: physicochemical
Experimental: AMG 397 hydrate Form 7 was prepared by charging ˜4 g of AMG 397 with 1-propanol and then slurrying at 55° C. for 4 days. Isolated solids were subsequently dried under vacuum at 95-105° C. for 7 days. Water content by KF was 0.9% initially and 5.6% after equilibration at ambient conditions. DVS indicates variable water content to 0-12% based on environment.

In the case of `CO[C@]1(CN2CCN3CCCC[C@@H]3C2)/C=C/C[C@H](C)[C@@H](C)S(=O)(=O)NC(=O)c2ccc3c(c2)N(C[C@@H]2CC[C@H]21)C[C@@]1(CCCc2cc(Cl)ccc21)CO3` [amorphous AMG 397], the “moisture sorption weight gain” value ([1]; by 95% relative humidity) is reported as about 6.4% and the “moisture sorption weight gain” value ([1]; by 95% relative humidity, listed as amorphous form of AMG 397) is reported as 6.4%.
For `CO[C@]1(CN2CCN3CCCC[C@@H]3C2)/C=C/C[C@H](C)[C@@H](C)S(=O)(=O)NC(=O)c2ccc3c(c2)N(C[C@@H]2CC[C@H]21)C[C@@]1(CCCc2cc(Cl)ccc21)CO3` [anhydrous form 4], the “thermodynamic stability of form” value [2] was “thermodynamically stable form”, the “moisture sorption weight gain” value ([1]; by 95% relative humidity) was 4.5% and the “moisture sorption weight gain” value ([1]; by 95% relative humidity, listed as crystalline anhydrous form 4 of AMG 397) was about 4.5%.
With `CO[C@]1(CN2CCN3CCCC[C@@H]3C2)/C=C/C[C@H](C)[C@@H](C)S(=O)(=O)NC(=O)c2ccc3c(c2)N(C[C@@H]2CC[C@H]21)C[C@@]1(CCCc2cc(Cl)ccc21)CO3` [anhydrous form 6] the “moisture sorption weight gain” value ([1]; 50-95% relative humidity) was 10%, the “moisture sorption weight gain” value ([1]; between 0-50% relative humidity) was 0.5% and the “moisture sorption weight gain” value ([1]; by 95% relative humidity) was 10%.
With `CO[C@]1(CN2CCN3CCCC[C@@H]3C2)/C=C/C[C@H](C)[C@@H](C)S(=O)(=O)NC(=O)c2ccc3c(c2)N(C[C@@H]2CC[C@H]21)C[C@@]1(CCCc2cc(Cl)ccc21)CO3` [hydrate form 1] the solubility [3] was “higher”, the “moisture sorption weight gain” value ([1]; by 95% relative humidity) was 3.3% and the “moisture sorption weight gain” value ([1]; by 95% relative humidity, listed as crystalline hydrate form 1 of AMG 397) was about 3.3%. The bioavailability [4] was “higher”.
With `CO[C@]1(CN2CCN3CCCC[C@@H]3C2)/C=C/C[C@H](C)[C@@H](C)S(=O)(=O)NC(=O)c2ccc3c(c2)N(C[C@@H]2CC[C@H]21)C[C@@]1(CCCc2cc(Cl)ccc21)CO3` [hydrate form 2] the “moisture sorption weight gain” value ([1]; by 95% relative humidity) was 3% and the “moisture sorption weight gain” value ([1]; by 95% relative humidity, listed as crystalline hydrate form 2 of AMG 397) was about 3.0%.
For `CO[C@]1(CN2CCN3CCCC[C@@H]3C2)/C=C/C[C@H](C)[C@@H](C)S(=O)(=O)NC(=O)c2ccc3c(c2)N(C[C@@H]2CC[C@H]21)C[C@@]1(CCCc2cc(Cl)ccc21)CO3` [hydrate form 3], the “moisture sorption weight gain” value ([1]; by 95% relative humidity) was 1.9% and the “moisture sorption weight gain” value ([1]; by 95% relative humidity, listed as crystalline hydrate form 3 of AMG 397) was about 1.9%.
For `CO[C@]1(CN2CCN3CCCC[C@@H]3C2)/C=C/C[C@H](C)[C@@H](C)S(=O)(=O)NC(=O)c2ccc3c(c2)N(C[C@@H]2CC[C@H]21)C[C@@]1(CCCc2cc(Cl)ccc21)CO3` [hydrate form 7], the “water content by KF” value (Water content by KF; after equilibration at ambient conditions) was 5.6%, the “water content by KF” value (Water content by KF; initially) was 0.9% and the “variable water content (DVS)” value ([1]; based on environment) was 0-12%. The “moisture sorption weight gain” value ([1]; by 95% relative humidity) was 0-12% and the “variable water content (DVS)” value ([1]; moisture sorption profile) was 0-12 % wt.
